Numbers after ± are expanded uncertainties.
Assay: not given
Settings: Crystal; DTA

SMILES | Normal melting temperature [°C]
CCCCCCCCCC[N+](C)(C)CCCCCCCCCC.O=[N+]([O-])[O-] [Didecyldimethylammonium nitrate] | 31.7 ± 4

Same assay, conditions: Crystal; visual observation

Normal melting temperature [°C] | SMILES
-14.9 ± 4 | CCCCCCCCO [octan-1-ol]
-94.3 ± 4 | CCCCCC [hexane]
-99.0 ± 4 | CCCc1ccccc1 [propylbenzene]
-89.4 ± 4 | CCCCO [butan-1-ol]
-126.4 ± 4 | CCCO [propan-1-ol]
18.0 ± 4 | CCCCCCCCCCCCCCCC [hexadecane]
5.1 ± 4 | CCCCCCCCCCO [decan-1-ol]

SMILES | Normal melting temperature [°C]
Cc1ccccc1 [toluene] | -95.0 ± 4

Assay: Molar enthalpy of transition or fusion
Settings: Crystal; DSC

SMILES | Molar enthalpy of transition or fusion [kcal/mol]
CCCCCCCCCC[N+](C)(C)CCCCCCCCCC.O=[N+]([O-])[O-] [Didecyldimethylammonium nitrate] | 2.36 ± 0.086
